Like-named read-outs stand apart in the source and are kept apart here.
What was measured:
[1] = tested on: L. crescens strain BT-1 (Lcr); type: cell-based, Liberibacter crescens; details: 5 days; for inhibition of the growth of Lcr: 20 μl on 6 mm disc
[2] = tested on: E. coli Stratagene strain “Solopack”; test: Disc test of essential oils on E. coli growth on LB agar; type: cell-based; details: 20 μl undiluted on 6 mm disc, 24 hrs
Experimental: The essential oils cinnamadehyde (Aldrich, W228605; ≥98% purity), carvacrol (Aldrich, W224502; ≥98% purity) and geraniol (Aldrich, 163333; 98% purity) were purchased Sigma-Aldrich (St. Louis, Mo.). A single colony of E. coli Stratagene strain “Solopack” was inoculated in 5 ml of Luria Broth (LB) liquid medium with shaking at 37° C. overnight. Two hundred μl of the E. coli overnight cultures were placed on an LB agar plate, and spread evenly with glass beads. The bacterial culture was allowed to absorb into the LB medium. Within 30 min after absorption, 20 μl drops of the three essential oils (cinnamaldehyde, carvacrol or geraniol) were separately placed without dilution on 6 mm discs (Whatman, Cat No. 2017-006; GE healthcare Life Science) and the treated disks were placed on top of the plates with E. coli. The plates were then incubated for 24 hrs. […] Experiments were repeated, with the same results.

[3] = tested on: Swingle rootstocks and sweet orange; test: Phytotoxicity of foliar spray or leaf painting on citrus; type: in vivo; details: spray to run-off or leaf painting
From the text: To test the phytoxicity of cinnamaldehyde or carvacrol in 70% ethanol, and 70% ethanol alone on citrus plants, we applied 1% (w/v) and 10% (w/v) cinnamaldehyde or carvacrol (each dissolved in 70% ethanol) on Swingle rootstocks (˜6 inches to 1 foot tall) by spraying to the point of run-off of the spray and also sweet orange (˜3 foot tall) by painting one or both sides of a portion of the leaf surface. We also applied 70% ethanol as control in these two methods.

Swingle rootstocks = test: Phytotoxicity of soil drench on potted citrus; type: in vivo; details: drench to run-off
From the text: To further test the phytoxicity of cinnamaldehyde or carvacrol in 70% ethanol, and 70% ethanol alone on citrus plants, we applied 1% and 10% cinnamaldehyde or carvacrol (each dissolved in 70% ethanol) on Swingle rootstocks (˜6 inches to 1 foot tall) by adding sufficient liquid to soil of potted citrus to the point of run-off of the drench. We also applied 70% ethanol as control in these two methods.

Las [4] = type: in vivo, Candidatus Liberibacter asiaticus; details: 1% (w/v) in 70% ethanol, foliar spray to run-off; 1-2 weeks later and for several months; positive = Ct ≤ 35
Las [5] = details: spray to run-off
Las [6] = details: 1.5% (w/v) in 100% DMSO
[7] = 1% in 70% ethanol (carvacrol: 8 mg/ml (1%))

Compound | inhibition of the growth of Lcr ([1]; 2 mg/ml in 70% ethanol) | inhibition of the growth of E. coli [2] | relative inhibition of the growth of E. coli (ranking) [2] | phytotoxicity, foliar ([3]; 1% (w/v) in 70% ethanol) | phytotoxicity, soil drench (Swingle rootstocks; [7]) | level down to which inhibitory to Lcr ([1]; two-fold serial dilutions in 70% ethanol, disc test) | Las qPCR tests after treatment (Las [4]) | phytotoxicity, foliar ([3]; 10% w/v in 70% ethanol) | phytotoxicity, soil drench (Swingle rootstocks; 10% w/v in 70% ethanol) | PCR tests for presence of Las (Las [5]; 0.3% in 50% DMSO) | effect on the trees (defoliation) (Las [5]; 0.3% in 50% DMSO) | weekly qPCR tests for Las for the next nine months (Las [5]; 1.5% in 50% DMSO) | effect on the trees (defoliation) (Las [5]; 1.5% in 50% DMSO, 6-7 days later) | PCR tests for presence of Las in new shoots (Las [5]; 1.5% in 50% DMSO, about 3 weeks after defoliation) | effect on the trees (defoliation) (Las [6]; 2 x 20 ml trunk injection, 6-7 days later) | PCR tests for presence of Las in new shoots (Las [6]; trunk injection) | weekly PCR tests for Las for the next 9 months (Las [6]; trunk injection) | inhibition of the growth of Lcr ([1]; 2 mg/ml to 0.125 mg/ml in 70% ethanol)
Cc1ccc(C(C)C)cc1O [carvacrol, reference compound] | only slight inhibition | inhibitory | more inhibitory than cinnamaldehyde | highly phytotoxic | highly phytotoxic | – | – | – | – | – | – | – | – | – | – | – | – | –
O=C/C=C/c1ccccc1 [cinnamaldehyde] | surprisingly strong inhibition | inhibitory | more inhibitory than geraniol | not at all phytotoxic | not at all phytotoxic | 1 mg/mL | qPCR positive | moderately phytotoxic | moderately phytotoxic | remained infected | appeared unaffected | remained completely negative | completely defoliated | completely Las negative | completely defoliated | completely negative | remained completely PCR negative | –
CC(C)=CCC/C(C)=C/CO [geraniol, reference compound] | – | inhibitory | – | – | – | – | – | – | – | – | – | – | – | – | – | – | – | not inhibitory

Reference: US10772326B2 (priority 2014, dated 2020)
